# Test results: patent publication US20240327361A1, “RADIOLABELED COMPOSITIONS AND METHODS OF USE THEREOF” (The Research Foundation for the State University of New York, priority 2021, published 2024)
# Key:
# Class-lla HDAC = experiment: Cell-based deacetylase assay in HT-29 cells, class-IIa selective substrate Boc-Lys-TFA; conditions: whole-cell assay, 100 μM Boc-Lys-TFA (class-IIa selective substrate), 3 h at 37° C.
# Procedure: Cell-based deacetylase assay. […] HT-29 cells (obtained from ATCC) with the addition of either 100 μM Boc-Lys-TFA (class-IIa selective substrate) or 200 μM Boc-Lys-Ac (class-I/IIb selective substrate) were plated into 96 well plates at 200,000 cells/well in 45 uL cellular assay buffer (RPMI without phenol red, 0.1% Fetal Bovine Serum) and were incubated for 3 h at 37° C. The deacetylation achieved by the addition of 50 uL HDAC developer solution (2.5 mg/ml trypsin in DMEM without Fetal Bovine Serum and 10% tween 80) for a further 1 h to sensitize the substrate and to lyse the cells. Fluorescent counts were read with microplate reader at an excitation wavelength of 360 nm and detection of emitted light of 460 nm.
# Class-I HDAC = experiment: Cell-based deacetylase assay in HT-29 cells, class-I/IIb selective substrate Boc-Lys-Ac; conditions: whole-cell assay, 200 μM Boc-Lys-Ac (class-I/IIb selective substrate), 3 h at 37° C.
# Procedure: Cell-based deacetylase assay. The cell-based assay was conducted similar to the previous work (Lobera M 2013; Luckhurst C A 2019) Briefly, compounds were diluted in 5 uL DMSO (11-point concentration curve, 5% final DMSO) and were added to 96 wells with positive (5 μM Trichostatin A (TSA)) and negative control (5 uL DMSO) wells. HT-29 cells (obtained from ATCC) with the addition of either 100 μM Boc-Lys-TFA (class-IIa selective substrate) or 200 μM Boc-Lys-Ac (class-I/IIb selective substrate) were plated into 96 well plates at 200,000 cells/well in 45 uL cellular assay buffer (RPMI without phenol red, 0.1% Fetal Bovine Serum) and were incubated for 3 h at 37° C. The deacetylation achieved by the addition of 50 uL HDAC developer solution (2.5 mg/ml trypsin in DMEM without Fetal Bovine Serum and 10% tween 80) for a further 1 h to sensitize the substrate and to lyse the cells. Fluorescent counts were read with microplate reader at an excitation wavelength of 360 nm and detection of emitted light of 460 nm.
# [1] = Stability of the tracer in its injection formulation; type: physicochemical; conditions: ethanol:polysorbate 80:saline (10:10:80%), 37° C.
# Procedure: Anesthetized Sprague Dawley rats (200-250 g, N=6) were placed in the Inveon uPET (Siemens, Knoxville, TN) in the supine position with the skull positioned in the center of the field of view. [^18F]-NT160 was formulated in ethanol:polysorbate 80:saline (10:10:80%) and it was stable in this formulation at 37° C. at least for 4 hours. [^18F]-NT160 (18.5-25.9 MBq/animal) was administered via the tail-vein injection in a total volume 0.5-1.0 ml. Dynamic PET images were obtained over 60 minutes followed by CT imaging (15 min scan). Images were reconstructed with attenuation correction using an ordered subset expectation maximization (OSEM2D) algorithm with 16 subsets and 4 iterations. […] The time-activity curve (TAC) was generated from the region of interest (ROI) by plotting the radioactivity/cc vs time. Levels of accumulation of the radiotracer in tissues were expressed as standard uptake values (SUV) that were calculated for the regions of interest (ROI) using the AMIDE software. The SUV is defined as the ratio of the tissue radioactivity concentration C (e.g. expressed as Bq/g tissue) at given time point post injection T, and the injected dose (e.g. in Bq, decay-corrected to the same time T), and normalized by the body weight in grams. […]
# class-lla HDACs = experiment: In vivo microPET imaging of healthy rats (biodistribution, self-blocking with cold TMP195); design: species or system Sprague Dawley rats; conditions: rat brain PET
# Procedure: Sprague Dawley rats (200-250 g, N=3,) were anesthetized with 3% isoflurane in oxygen and maintained at 2% isoflurane in oxygen throughout the imaging studies. Anesthetized rat was placed in the uPET (Siemens, Knoxville, TN) with the skull positioned in the center of the field of view. The tracer (500-700 μCi/animal) was administered intravenously into each Rat (n=3 per group) in a total volume 0.5-1.0 ml solution. Dynamic PET images were obtained over 60 minutes. Images were reconstructed with attenuation correction using an ordered subset expectation maximization (OSEM2D) algorithm with 16 subsets and 4 iterations.
# Dynamic PET images were analyzed with Inveon Research Workplace 4.0 (Siemens, Knoxville, TN) and AMIDE software using manual segmentation of regions of interest (ROI), were drawn over ROI on the decay-corrected coronal images. The radioactivity accumulation (tracer uptake) within the ROI were obtained as percentage of the injected dose (ID) per gram of tissue (% ID/g). The time-activity curve (TAC) was generated from the region of interest (ROI) by plotting the radioactivity/cc vs time.
# Anesthetized Sprague Dawley rats (200-250 g, N=6) were placed in the Inveon uPET (Siemens, Knoxville, TN) in the supine position with the skull positioned in the center of the field of view. [^18F]-NT160 was formulated in ethanol:polysorbate 80:saline (10:10:80%) and it was stable in this formulation at 37° C. at least for 4 hours. [^18F]-NT160 (18.5-25.9 MBq/animal) was administered via the tail-vein injection in a total volume 0.5-1.0 ml. Dynamic PET images were obtained over 60 minutes followed by CT imaging (15 min scan). Images were reconstructed with attenuation correction using an ordered subset expectation maximization (OSEM2D) algorithm with 16 subsets and 4 iterations. PET image analysis was performed using the AMIDE software by using manual segmentation of regions of interest (ROI), including: whole brain, cortex, hippocampus, thalamus, cerebellum, and brain stem. Rat Brain Atlas was used for alignment and identification of specific anatomical markers of the brain. The time-activity curve (TAC) was generated from the region of interest (ROI) by plotting the radioactivity/cc vs time. Levels of accumulation of the radiotracer in tissues were expressed as standard uptake values (SUV) that were calculated for the regions of interest (ROI) using the AMIDE software. The SUV is defined as the ratio of the tissue radioactivity concentration C (e.g. expressed as Bq/g tissue) at given time point post injection T, and the injected dose (e.g. in Bq, decay-corrected to the same time T), and normalized by the body weight in grams. GraphPad Prism (Graph Pad Software La Jolla, CA) was used for image data analysis. [^18F]-NT2-160 was also prepared by the same or similar procedure.
SMILES,IC50 (Class-lla HDAC),IC50 (Class-I HDAC),stable in formulation [1],biodistribution / uptake in brain regions (class-lla HDACs)
CC(C)(CNC(=O)c1ccc(-c2noc(C(F)(F)F)n2)cc1)c1coc(-c2ccccc2)n1 [NT-134],> 5000 nM,> 15000 nM,,
O=C(NC1CCN(Cc2ccc(F)cc2)C1)c1ccc(-c2noc(C(F)(F)F)n2)cc1F (centres unmarked) [NT3-77C],173 nM,> 10000 nM,,
C[C@H](NC(=O)c1ccc(-c2noc(C(F)(F)F)n2)cc1)C(=O)N1CC[C@H](c2ccccc2)C1 [NT3-52B],> 1000 nM,> 50000 nM,,
O=C(NC1CCN(Cc2ccc(I)cc2)C1)c1ccc(-c2noc(C(F)(F)F)n2)cc1 (centres unmarked) [NT3-39],295 nM,> 50000 nM,,
CCN1CCC(NC(=O)c2ccc(-c3noc(C(F)(F)F)n3)cc2)C1 (centres unmarked) [NT3-83],91 nM,> 9000 nM,,
O=C(NC1CCN(Cc2ccccc2)C1)c1ccc(-c2noc(C(F)(F)[18F])n2)cc1 (centres unmarked) [[^18F]-NT2-160],,,,heterogenous
CC(CN(C)Cc1ccccc1)NC(=O)c1ccc(-c2noc(C(F)(F)F)n2)cc1 (centres unmarked) [NT2-191],,> 50000 nM,,
C[C@H](CN(C)Cc1ccccc1)NC(=O)c1ccc(-c2noc(C(F)(F)F)n2)cc1F [NT3-76],32 nM,> 5000 nM,,
O=C(NC1CCN(Cc2ccccc2)C1)c1ccc(-c2noc(C(F)(F)F)n2)cc1 (centres unmarked) [NT2-160],,> 20000 nM,,
CN1CCC(NC(=O)c2ccc(-c3noc(C(F)(F)F)n3)cc2F)C1 (centres unmarked) [NT3-75],72 nM,> 3000 nM,,
C[C@@H](NC(=O)c1ccc(-c2noc(C(F)(F)F)n2)cc1)C(=O)NCc1ccccc1 [NT2-67],953 nM,> 15000 nM,,

# Other lines, results leading:
IC50 (Class-lla HDAC),IC50 (Class-I HDAC),stable in formulation [1],biodistribution / uptake in brain regions (class-lla HDACs),SMILES
> 50000 nM,> 50000 nM,,,CN(Cc1ccccc1)C(=O)CCNC(=O)c1cccc(-c2noc(C(F)(F)F)n2)c1 [NT-175]
> 10000 nM,> 50000 nM,,,O=C(NC1CCCN(Cc2ccccc2)C1)c1ccc(-c2noc(C(F)(F)F)n2)cc1 (centres unmarked) [NT2-190]
,,≥ 4 h,,C[C@H](CN(C)Cc1ccccc1)NC(=O)c1ccc(-c2noc(C(F)(F)[18F])n2)cc1 [[^18F]-NT160]
> 2000 nM,> 2000 nM,,,C[C@H](CN(C)Cc1ccccc1)NC(=O)c1ccc(-c2noc(C(F)(F)Cl)n2)cc1 [NT3-89B]
> 20000 nM,> 50000 nM,,,CCN1CC[C@@H](NC(=O)c2ccc(-c3noc(C(F)(F)Cl)n3)cc2)C1 [NT3-92]
179 nM,> 10000 nM,,,O=C(NC1CCN(Cc2ccccc2F)C1)c1ccc(-c2noc(C(F)(F)F)n2)cc1F (centres unmarked) [NT3-77A]
537 ± 150 nM,> 15000 nM,,,COC[C@@H](NC(=O)c1ccc(-c2noc(C(F)(F)F)n2)cc1)C(=O)NCc1ccccc1 [NT-176]
